{"source": "paper PMC8202924", "about": "“Emodepside targets SLO-1 channels of Onchocerca ochengi and induces broad anthelmintic effects in a bovine model of onchocerciasis” (PLoS Pathogens, 2021)", "key": {"[1]": {"test": "Skin concentration of emodepside in the main trial, LC-MS/MS", "format": "in vivo, zebu (Ngaoundéré Gudali) cattle (B. t. indicus)", "procedure": "Bovine samples (EDTA-plasma, skin snips and nodules) were stored at –80°C in Cameroon and shipped according to international transportation guidelines on dry ice to Bayer, Germany. Due to suspected contamination with other pathogens, samples required decontamination. Based on modified WHO guidelines for viral inactivation and reports of virus stability in fluids and solid media issued by the United States Army, decontamination of samples was performed. Samples were thawed slowly in a microbiological safety cabinet and the plasma samples were vortexed gently. Skin snips and nodules were homogenized in a Qiagen TissueLyser II (Qiagen NV, Hilden, the Netherlands) with stainless steel beads. Homogenates were weighed and mixed with 4.5 volumes of a 0.5% collagenase solution (collagenase from Clostridium histolyticum [>125 IU/mg] Merck KGaA, Darmstadt, Germany), then incubated at 37°C with orbital mixing at 140 rpm for 48 h.\nPlasma samples, skin and nodule homogenates were precipitated in a 1:10 ratio with acetonitrile using a vortex mixer at 150 rpm for 10 min, then centrifuged for 5 min at 14,000 rpm. The supernatants were pipetted into gas-tight vials and incubated at 80°C for 21 min to achieve a core temperature of 80°C for 10 min, then cooled to 4°C in a water-ice bath. Finally, samples were filtered using a cellulose sterile filter (S&S Spartan 13/30) into standard HPLC vials for liquid chromatography–mass spectrometry analysis. For liquid chromatography on a C18 column, a water/methanol gradient (containing 10 mmol ammonium acetate and 0.1 mL/L formic acid) was used. Quantification of emodepside was performed by tandem mass spectrometry on an API 5500 instrument (AB Sciex, Darmstadt, Germany) using the transition of m/z = 1,120 ([M + H]^+) to its product ion m/z = 343."}, "[2]": {"test": "Blood glucose in the main trial, test-strip assay", "format": "in vivo, zebu (Ngaoundéré Gudali) cattle (B. t. indicus)", "procedure": "Glucose concentrations were measured pre- and post-chemotherapy using venous blood, which was analyzed in a test-strip assay (MediTouch 2 blood glucose monitor, Medisana, Neuss, Germany). Both individual animal and group blood-glucose concentrations were compared with a standard reference range for cattle (45–75 mg/dL [58]). To evaluate group-level effects, 95% confidence intervals (CI) were calculated using the group mean, SD and sample number for each group at each respective timepoint, with changes in blood glucose concentration considered significant if either the lower CI exceeded the upper limit of the standard reference range, or the upper CI was below the lower limit of the standard reference range."}, "[3]": {"conditions": "for Rumen contraction: over four days after treatment, from 1 contraction/min", "text": "Four non-pregnant, non-lactating cows naturally infected with O. ochengi were purchased from farmers in the Vina Division of the Adamawa Region and acclimatized at the IRAD Wakwa site for two weeks before the start of the trial. Cows were 3–6 years old and weighed 185–300 kg. They were housed in a 35 m^2 enclosure at night and fed with cotton seed cake (2 g/kg bodyweight) in the morning before grazing them on a 1 ha Brachiaria ruziziensis paddock between 9 am and 4 pm daily. Water and salt were supplied ad libitum when housed. Each cow was randomly allocated (by ear-tag number using an online research randomizer [available at https://www.randomizer.org]) to receive a single low dose of emodepside 0.15 mg/kg, a single high dose of emodepside 0.75 mg/kg, a low dose twice (emodepside 0.15 mg/kg on two consecutive days), or vehicle only (solketal). Prior to treatment, the cows were sedated with xylazine hydrochloride (Rompun). Verum or vehicle was administered IV into the jugular vein using a perfusion apparatus (Braun Perfusor Space) following an identical protocol to the Holstein pre-study described above."}, "[4]": {"tested_on": "Onchocerca ochengi microfilariae", "test": "Dermal microfilarial load (area under the density-time curve)", "format": "in vivo", "conditions": "MRSM, 4 mg/kg every other day for 3 days; vs placebo", "text": "Here, the null hypothesis, H0, is that the parameter m is not different to 0. If H0 can be rejected, a concentration-dependent effect of emodepside can be assumed. The alpha level selected for statistical significance was 5%. We considered three PD endpoints, a) uterine contents (with oocytes, developing embryonic stages, normal intrauterine Mf and degenerate intrauterine Mf considered separately), b) skin Mf load, and c) male and female motility (separately). Mf load is defined as the area under the curve of observed counts over time according to Eq 4: Mfload=∑i=2nMfdensityi+Mfdensityi−1/2*ti−ti−1 (4) per individual treated animal. To increase the robustness of the analysis, only animals presenting a skin Mf load of ≥100/100 mg skin at day -1 were included.\nThe same principle was applied to the analysis of the uterine contents. In order to test a dose-dependent effect, and an effect over placebo, the log load of uterine contents or Mf was used as the PD endpoint E in Eq 3, and exposure C was the sum of doses. Over all doses and individual animals, an effect size (m) and corresponding statistics were calculated using R’s lm function."}, "[5]": {"tested_on": "Onchocerca ochengi adult female worms", "test": "Ex vivo visual motility assessment of adult female worms from nodules", "format": "in vivo", "conditions": "MRSM, 4 mg/kg every other day for 3 days", "procedure": "Tattooed nodules were removed under local anesthesia (lidocaine-epinephrine) on study days -1, 90, 180–190, 270–290, 360 and 550 in a randomized order as previously described. Nodules were trimmed of excess tissue and up to four nodules per animal were processed separately as follows: (1) stored frozen at –80°C for PK analysis (up to day 14 only); (2) injected in toto with 10% neutral-buffered formalin and stored at 4°C for histopathology (up to day 290 only); or (3) dissected immediately in phosphate-buffered saline to separate adult male and female worms. The anterior end of the female worm (which even in viable specimens is the only motile part of the parasite) was removed from the worm mass and incubated alongside intact male worms for 30 min at 37°C for visual motility assessment on a three-point scale. The remaining portion of the female worm mass was subjectively scored for fecundity on a four-point scale (0, uteri empty or worm structure degraded; 1, low; 2, intermediate; 3, normal) by examining the uterine contents microscopically in situ. This was followed by a fully quantitative embryogram to enumerate oocytes, embryonic stages and intrauterine Mf as described previously.\nThe second class of PD endpoint considered was worm motility, which was recorded as a three-class categorical variable and quantified here as a fraction of normal worm motility. First, a linear model of decrease in motility per dose group was established with a study-wide mean motility at day –1: motilitydose_group,t=meanmotilityday−1−slopedose_group*t (5)"}}, "note": "Where two headings read alike, the source gives them in different places.", "data": [{"smiles": "CC(C)C[C@H]1C(=O)O[C@H](Cc2ccc(N3CCOCC3)cc2)C(=O)N(C)[C@@H](CC(C)C)C(=O)O[C@H](C)C(=O)N(C)[C@@H](CC(C)C)C(=O)O[C@H](Cc2ccc(N3CCOCC3)cc2)C(=O)N(C)[C@@H](CC(C)C)C(=O)O[C@H](C)C(=O)N1C", "note": "[emodepside]", "values": [{"measurement": "Median ratio between skin and plasma concentration", "setting": "[1]; 54 occasions, same study day, all emodepside groups", "value": 1.1}, {"measurement": "tmax observed in skin", "setting": "[1]; EMO1L, 0.15 mg/kg IV single dose, animals in order B0696, B0698, B0700, B0730, B0731, B0762", "value": 24, "unit": "h"}, {"measurement": "tmax observed in skin", "setting": "[1]; EMO7H, 0.75 mg/kg IV daily for 7 days, animals in order B0404, B0434, B0694, B0695, B0734, B0750, B0765", "value": 24, "unit": "h"}, {"measurement": "Blood glucose, group-level 95% CI vs reference range 45–75 mg/dL", "setting": "[2]; EMO1H, 0.75 mg/kg single dose, at 30 min, 2 and 6 h", "value": "significantly above the standard reference range"}, {"measurement": "Blood glucose, group-level 95% CI vs reference range 45–75 mg/dL", "setting": "[2]; EMO1L, 0.15 mg/kg single dose, at 30 min, 2 and 6 h", "value": "significantly above the standard reference range"}, {"measurement": "Blood glucose, group-level 95% CI vs reference range 45–75 mg/dL", "setting": "[2]; EMO7H, 0.75 mg/kg daily for 7 days, at 2 h", "value": "significantly above the standard reference range"}, {"measurement": "Adverse effects", "setting": "[3]; 0.15 mg/kg IV, over 1 h following administration", "value": "mild muscular tremors and salivation"}, {"measurement": "Rumen contraction", "setting": "[3]; 0.15 mg/kg IV", "value": 1.5, "unit": "contractions/min"}, {"measurement": "Heart rate", "setting": "[3]; 0.75 mg/kg IV, 6 h post treatment, increasing from 72 bpm, normal on day 4", "value": 80, "unit": "bpm"}, {"measurement": "Blood glucose concentration", "setting": "[3]; 0.75 mg/kg IV, 8 h after treatment", "value": "158 to 200", "unit": "mg/dL"}, {"measurement": "Blood glucose concentration", "setting": "[3]; 0.75 mg/kg IV, by 24 h (within the normal range)", "value": 61, "unit": "mg/dL"}, {"measurement": "Rumen contraction", "setting": "[3]; 0.75 mg/kg IV", "value": 2, "unit": "contractions/min"}, {"measurement": "Temperature and respiratory rates", "setting": "[3]; 0.15 and 0.75 mg/kg IV", "value": "not affected"}]}, {"smiles": "NCCS[As](SCCN)c1ccc(Nc2nc(N)nc(N)n2)cc1", "note": "[melarsomine]", "values": [{"measurement": "Median reduction in Mf load", "setting": "[4]", "value": 96, "unit": "%"}, {"measurement": "Blood glucose, group-level 95% CI vs reference range 45–75 mg/dL", "setting": "[2]; MRSM, 4 mg/kg every other day for 3 days, at 5 and 30 min and 2 h", "value": "significantly above the standard reference range"}, {"measurement": "Female worm motility", "setting": "[5]; by day 90, all nodules", "value": "reduced to zero"}, {"measurement": "Fraction of normal adult female worm motility", "setting": "[5]; day 90, n = 7", "value": 0, "unit": "%"}, {"measurement": "Fraction of normal adult female worm motility", "setting": "[5]; day 185, n = 7", "value": 0, "unit": "%"}, {"measurement": "Fraction of normal adult female worm motility", "setting": "[5]; day 275, n = 7", "value": 0, "unit": "%"}, {"measurement": "Fraction of normal adult female worm motility", "setting": "[5]; day 360, n = 2", "value": 0, "unit": "%"}, {"measurement": "Fraction of normal adult female worm motility", "setting": "[5]; day 550, n = 2", "value": 0, "unit": "%"}]}]}
